Literature values, collected in US20080242727A1, “DIETARY COMPOSITIONS CONTAINING ALPHA AMINO N-BUTYRATE AND METHODS OF ENHANCING LEAN BODY MASS” (priority 2007, published 2008).

Legend:
[1] = system: protein synthesis in skeletal muscle; settings: for protein synthesis in skeletal muscle of food-deprived rats: oral administration, vs saline-treated controls
[2] = system: hemidiaphragms from fed or fasted rats; settings: in vitro; for specific activity of muscle proteins (protein synthesis): [14C]lysine, with or without insulin
[3] = system: hearts perfused with buffer; settings: for negative nitrogen balance: buffer with glucose and normal plasma levels of other amino acids, except BCAA
[4] = system: erythroid progenitors; settings: in vivo or in culture
[5] = system: rat liver proteolysis; settings: out of 12 amino acids tested; only at concentrations much higher than physiological
[6] = dose of as little as 3 g/day

| SMILES | protein synthesis in skeletal muscle of food-deprived rats [1] | specific activity of muscle proteins (protein synthesis) [2] | negative nitrogen balance [3] | further results |
| --- | --- | --- | --- | --- |
| CC(C)[C@H](N)C(=O)O [valine] | ineffective | no effect | not | – |
| CCC(N)C(=O)O (stereo not drawn) [ABA, alpha amino n-butyrate] | – | – | – | growth of erythroid progenitors [4]: stimulated the growth of all classes of erythroid progenitors |
| CC(C)C[C@H](N)C(=O)O [Leucine, L-Leucine] | stimulated protein synthesis | increased | decreased the negative nitrogen balance | protein synthesis / eIF4F formation ([1]; independently of increases in serum insulin): stimulated protein synthesis by enhancing eukaryotic initiation factor (eIF)4F formation; muscle synthesis after exercise ([1]; oral gavage to rats after exercise): stimulated muscle synthesis independent of increased plasma insulin; glucocorticoid-induced decreases in protein synthesis and mRNA translation ([1]; oral, rats): restored; protein degradation [2]: prohibited protein degradation; rate of protein synthesis as % of the rate of proteolysis ([3]; leucine concentrations giving maximal inhibition of protein degradation): 50%; inhibition of deprivation-induced rat liver proteolysis [5]: strongest inhibitor |
| CC(C)(O)CC(=O)O [HMB, b-hydroxy b-methylbutyrate] | – | – | – | effect on catabolism, lean muscle mass and recuperation [6]: anti-catabolic, promotes lean muscle mass, and may speed recuperation |
| CC[C@H](C)[C@H](N)C(=O)O [isoleucine] | ineffective | inhibitory effects | not | – |
